# Tests used:
# Assay in all cases: relative viability (nuclei count vs DMSO), 5 days (fraction); higher = more cells survive
# [1] = compound: NC(=O)[C@@H](CCC(F)(F)F)N(Cc1ccc(-c2ncon2)cc1F)S(=O)(=O)c1ccc(Cl)cc1 [Avagacestat] + CC(C)C[C@H](NC(=O)[C@H](Cc1ccccc1)NC(=O)c1cnccn1)B(O)O [Bortezomib] (partner 0.002 µM)
# Method in brief: (§1)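 Medians of duplicate plates are given as relative viability. That measure is the nuclei count in treated wells divided by the count in vehicle wells. Counts were taken on 4× images of lung cancer cell lines in 1536-well plates, 5 days after pin-tool dosing the day after seeding with one drug alone or a fixed anchor-drug dose plus five library-drug doses (not always all listed) in √10 steps.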
# [2] = compound: NC(=O)[C@@H](CCC(F)(F)F)N(Cc1ccc(-c2ncon2)cc1F)S(=O)(=O)c1ccc(Cl)cc1 [Avagacestat] + Cc1nc(Nc2ncc(C(=O)Nc3c(C)cccc3Cl)s2)cc(N2CCN(CCO)CC2)n1 [Dasatinib] (partner 0.075 µM)
# Method in brief: as §1
# [3] = compound: NC(=O)[C@@H](CCC(F)(F)F)N(Cc1ccc(-c2ncon2)cc1F)S(=O)(=O)c1ccc(Cl)cc1 [Avagacestat] + CC1(C)CCC(c2ccc(Cl)cc2)=C(CN2CCN(c3ccc(C(=O)NS(=O)(=O)c4ccc(N[C@H](CCN5CCOCC5)CSc5ccccc5)c(S(=O)(=O)C(F)(F)F)c4)cc3)CC2)C1 [Navitoclax] (partner 0.5 µM)
# Method in brief: as §1
# [4] = compound: NC(=O)[C@@H](CCC(F)(F)F)N(Cc1ccc(-c2ncon2)cc1F)S(=O)(=O)c1ccc(Cl)cc1 [Avagacestat] + CCNC(=O)c1noc(-c2cc(C(C)C)c(O)cc2O)c1-c1ccc(CN2CCOCC2)cc1 [Luminespib] (partner 0.01 µM)
# Method in brief: as §1
Cell Line,relative viability ([1]; first compound 0.08 µM),relative viability ([1]; first compound 0.253 µM),relative viability ([1]; first compound 0.8 µM),relative viability ([1]; first compound 2.53 µM),relative viability ([1]; first compound 8 µM),relative viability ([2]; first compound 0.08 µM),relative viability ([2]; first compound 0.253 µM),relative viability ([2]; first compound 0.8 µM),relative viability ([2]; first compound 2.53 µM),relative viability ([2]; first compound 8 µM),relative viability ([3]; first compound 0.08 µM),relative viability ([3]; first compound 0.253 µM),relative viability ([3]; first compound 0.8 µM),relative viability ([3]; first compound 2.53 µM),relative viability ([3]; first compound 8 µM),relative viability ([4]; first compound 0.08 µM),relative viability ([4]; first compound 0.253 µM),relative viability ([4]; first compound 0.8 µM),relative viability ([4]; first compound 2.53 µM),relative viability ([4]; first compound 8 µM)
201T,1.1,1.08,1.2,1.11,1.09,0.668,0.599,0.565,0.586,0.608,1.19,1.21,1.25,1.19,1.18,1.11,1.05,1,0.964,1.04
A-427,0.957,1.08,1.07,1.07,1.08,0.785,0.859,0.755,0.935,0.649,0.994,0.99,1.03,0.967,0.968,0.91,1.13,1.05,0.81,0.821
ABC-1,0.325,0.294,0.362,0.273,0.271,0.648,0.644,0.644,0.725,0.59,,,,,,0.387,0.583,0.801,0.359,0.555
BEN,0.936,0.789,0.954,0.533,0.775,0.382,0.325,0.389,0.37,0.326,0.0581,0.0757,0.141,0.061,0.0756,0.396,0.308,0.675,0.326,0.238
CAL-12T,1.13,0.982,1.42,1.09,1.14,0.376,0.414,0.418,0.386,0.253,1.52,1.44,1.3,1.32,1.22,0.351,0.921,0.427,0.364,0.276
COR-L23,1.58,1.3,1.14,1.03,0.528,0.507,0.471,0.781,0.457,0.359,1.57,1.31,1.04,1,0.814,1.08,0.803,1.08,0.642,0.512
COR-L 105,0.894,0.681,0.689,0.697,0.687,0.281,0.307,0.345,0.247,0.279,0.851,0.604,0.779,0.595,0.648,1.02,1.01,0.798,0.542,0.754
Calu-6,1.27,1.09,1.08,1.17,0.975,,,,,,1.07,0.99,0.922,1.06,0.81,,,,,
ChaGo-K-1,1.02,0.914,1.14,1.32,1.06,0.616,0.641,0.628,0.551,0.608,0.987,0.926,1.32,1.24,1.17,0.551,0.718,0.747,0.551,0.595
EBC-1,0.496,0.521,0.524,0.449,0.381,,,,,,0.342,0.392,0.334,0.372,0.296,,,,,
EKVX,1.18,1.44,1.23,0.885,0.9,0.621,0.491,0.512,0.473,0.382,1.12,1.15,1.04,0.792,0.853,0.798,0.973,0.859,0.809,0.751
EMC-BAC-2,1.22,1.17,1.23,1.08,1.11,0.342,0.298,0.301,0.292,0.308,1.46,1.54,1.38,1.1,1.17,1.33,1.4,1.29,1.12,1.1
EPLC-272H,1.02,1.02,1.05,1.21,0.922,0.328,0.339,0.289,0.348,0.266,1.51,1.13,1.32,1.21,0.964,0.21,0.267,0.139,0.153,0.304
H3255,1.02,0.966,1.08,0.817,0.788,0.362,0.347,0.57,0.379,0.313,0.504,0.59,0.71,0.431,0.498,1.02,0.951,0.941,1.05,0.847
HARA,1.71,1.09,1.17,1.16,1.07,0.234,0.254,0.228,0.262,0.239,1.39,1.27,1.23,1.17,1.2,0.783,0.201,0.614,0.536,0.87
HCC-15,1.22,1.21,1.24,0.973,0.921,0.685,0.642,0.652,0.608,0.539,0.87,0.806,0.799,0.732,0.591,0.442,0.338,0.309,0.325,0.284
HCC-44,1.06,1.09,0.934,0.965,0.829,,,,,,1.14,1.13,0.948,0.76,0.874,1.21,1.36,1.14,0.885,1.25
HCC-78,0.508,0.51,0.514,0.313,0.366,0.452,0.273,0.343,0.327,0.331,0.884,0.818,0.791,0.665,0.68,,,,,
HCC-366,,1.98,1.29,1.22,0.887,0.842,0.981,0.676,0.544,0.601,1.23,1.48,1,1.09,1.01,,,,,

Cell Line,relative viability ([1]; first compound 0.08 µM),relative viability ([1]; first compound 0.253 µM),relative viability ([1]; first compound 0.8 µM),relative viability ([1]; first compound 2.53 µM),relative viability ([1]; first compound 8 µM),relative viability ([2]; first compound 0.08 µM),relative viability ([2]; first compound 0.253 µM),relative viability ([2]; first compound 0.8 µM),relative viability ([2]; first compound 2.53 µM),relative viability ([2]; first compound 8 µM),relative viability ([3]; first compound 0.08 µM),relative viability ([3]; first compound 0.253 µM),relative viability ([3]; first compound 0.8 µM),relative viability ([3]; first compound 2.53 µM),relative viability ([3]; first compound 8 µM),relative viability ([4]; first compound 0.08 µM),relative viability ([4]; first compound 0.253 µM),relative viability ([4]; first compound 0.8 µM),relative viability ([4]; first compound 2.53 µM),relative viability ([4]; first compound 8 µM)
HCC-827,1.09,1.13,1.13,1.05,1.12,0.313,0.277,0.226,0.184,0.244,1.12,1.02,1.11,1.07,1.02,0.711,0.927,0.586,0.324,0.578
HOP-62,0.783,0.819,0.727,0.513,0.709,0.701,0.63,0.626,0.502,0.484,1.26,1.12,0.962,0.978,0.895,0.988,1.09,1.01,0.889,0.83
LC-2-ad,1.16,1.12,1.04,0.934,0.941,0.558,0.489,0.646,0.447,0.343,0.652,0.528,0.534,0.423,0.428,1.18,1.05,1.18,0.948,1.14
LCLC-97TM1,0.98,0.625,1.38,0.786,0.482,0.945,0.86,0.757,0.866,0.706,0.467,0.409,0.39,0.128,0.341,0.849,1.03,0.837,0.705,0.718
LCLC-103H,1.01,1.07,1.03,1.07,1.04,0.456,0.46,0.508,0.368,0.678,,,,,,1.1,1.27,0.979,0.808,0.851
LK-2,,,,,,0.26,0.224,0.247,0.271,0.267,1.16,0.969,0.704,0.365,0.797,0.185,0.176,0.198,0.154,0.169
LOU-NH91,0.541,0.509,0.51,0.478,0.485,0.612,0.509,0.618,0.443,0.493,0.69,0.723,0.684,0.531,0.646,0.311,0.341,0.31,0.331,0.342
NCI-H358,,,,,,0.163,0.159,0.164,0.155,0.148,,,,,,0.449,0.467,0.368,0.412,0.244
NCI-H650,1.08,0.948,1.16,1.03,0.735,0.499,0.398,0.481,0.456,0.451,,,,,,0.91,0.965,0.92,0.831,0.818
NCI-H661,0.919,1.06,0.774,,0.693,1.05,0.962,1.07,0.891,0.852,,,,,,0.983,1.08,0.946,0.913,1.01
NCI-H1299,1.03,1.01,1,1.01,0.991,,,,,,1.04,1.03,1.08,1.08,1.04,,,,,
NCI-H1395,,,,,,0.412,0.405,0.416,0.372,0.442,1.12,1.23,1.03,0.903,1.11,0.806,0.836,0.567,0.799,0.662
NCI-H1563,0.917,0.821,0.898,0.792,0.835,0.53,0.455,0.484,0.453,0.442,,,,,,0.552,0.558,0.575,0.503,0.543
NCI-H1703,0.403,0.422,0.272,0.322,0.318,,,,,,1.16,0.993,1.17,1.11,0.891,,,,,
NCI-H1793,,,,,,0.445,0.383,0.319,0.282,0.337,0.434,0.491,0.507,0.347,0.396,0.145,0.176,0.157,0.198,0.172
NCI-H1944,,,,,,0.199,0.201,0.227,0.202,0.222,1.14,1.09,1.03,0.989,0.993,0.731,0.941,0.591,0.515,0.599
NCI-H2170,,,,,,0.622,0.535,0.647,0.48,0.52,0.745,0.594,0.621,0.417,0.548,0.721,0.588,0.817,0.399,0.754
NCI-H2342,,,,,,0.344,0.341,0.334,0.31,0.302,,,,,,0.742,0.703,0.648,0.709,0.663
SK-MES-1,,,,,,0.33,0.301,0.394,0.247,0.364,1.32,1.29,1.27,1.2,1.27,0.863,0.865,0.724,0.616,0.788
